This passage reports IC50 results from patent US11878975B2, “Substituted indole compounds useful as TLR inhibitors” (BRISTOL-MYERS SQUIBB COMPANY, priority 2017, dated 2024).

Format in all cases: cell-based
For one assay, the target named is T1, human TLR9 (Homo sapiens, UniProt Q9NR96).
T1 construct: host or cells: HEK-Blue cells
T1 sequence (Q9NR96 26-1032): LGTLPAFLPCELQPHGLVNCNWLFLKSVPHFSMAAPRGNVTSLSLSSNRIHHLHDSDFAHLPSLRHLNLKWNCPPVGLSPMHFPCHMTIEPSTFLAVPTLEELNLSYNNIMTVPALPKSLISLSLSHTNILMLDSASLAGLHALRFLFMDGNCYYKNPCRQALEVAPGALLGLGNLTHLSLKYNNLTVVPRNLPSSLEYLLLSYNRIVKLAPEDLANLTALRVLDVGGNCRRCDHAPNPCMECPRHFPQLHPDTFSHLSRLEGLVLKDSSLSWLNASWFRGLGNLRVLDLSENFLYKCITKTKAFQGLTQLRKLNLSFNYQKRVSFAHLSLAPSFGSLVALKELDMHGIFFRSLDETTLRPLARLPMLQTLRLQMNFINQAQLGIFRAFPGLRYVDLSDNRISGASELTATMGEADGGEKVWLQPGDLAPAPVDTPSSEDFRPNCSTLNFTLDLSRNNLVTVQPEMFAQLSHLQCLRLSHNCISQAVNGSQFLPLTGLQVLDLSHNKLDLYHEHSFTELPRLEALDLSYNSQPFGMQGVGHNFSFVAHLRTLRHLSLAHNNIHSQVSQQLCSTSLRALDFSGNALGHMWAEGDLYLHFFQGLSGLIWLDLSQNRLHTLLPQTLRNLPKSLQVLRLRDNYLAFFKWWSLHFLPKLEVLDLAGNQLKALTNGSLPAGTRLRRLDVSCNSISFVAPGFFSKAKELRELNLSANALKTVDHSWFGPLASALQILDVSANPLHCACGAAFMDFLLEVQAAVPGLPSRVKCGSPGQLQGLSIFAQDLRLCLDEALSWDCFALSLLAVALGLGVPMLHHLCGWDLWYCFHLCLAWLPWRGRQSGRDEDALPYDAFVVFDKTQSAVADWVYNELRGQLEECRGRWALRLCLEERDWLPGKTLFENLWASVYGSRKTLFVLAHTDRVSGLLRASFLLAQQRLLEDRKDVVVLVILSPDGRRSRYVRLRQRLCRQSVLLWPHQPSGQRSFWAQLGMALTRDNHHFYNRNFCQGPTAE
The experiment in a line: TLR9 inhibition reporter assay (HEK-Blue cells, SEAP reporter, ODN2006 stimulation). To be noted: HEK-Blue cells overexpressing human TLR9, SEAP reporter, ODN2006 5 nM. Put shortly: (§1)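 HEK-Blue cells with NF-κB/AP-1-driven SEAP reporter, pre-treated 30 min at room temperature with compound (0.05 nM-50 μM). Stimulants: gardiquimod 7.5 μM (TLR7), R848 15.9 μM (TLR8) or ODN2006 5 nM (TLR9). SEAP measured after 22 h at 37° C.; percent inhibition versus agonist-plus-DMSO and known-inhibitor wells.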
(In general: Reporter assays use an easily measured gene product as a stand-in for the process of interest.)

The next assay deals with T2, human TLR8 (Homo sapiens, UniProt Q9NR97).
T2 construct: host or cells: HEK-Blue cells
T2 sequence (Q9NR97 27-1041): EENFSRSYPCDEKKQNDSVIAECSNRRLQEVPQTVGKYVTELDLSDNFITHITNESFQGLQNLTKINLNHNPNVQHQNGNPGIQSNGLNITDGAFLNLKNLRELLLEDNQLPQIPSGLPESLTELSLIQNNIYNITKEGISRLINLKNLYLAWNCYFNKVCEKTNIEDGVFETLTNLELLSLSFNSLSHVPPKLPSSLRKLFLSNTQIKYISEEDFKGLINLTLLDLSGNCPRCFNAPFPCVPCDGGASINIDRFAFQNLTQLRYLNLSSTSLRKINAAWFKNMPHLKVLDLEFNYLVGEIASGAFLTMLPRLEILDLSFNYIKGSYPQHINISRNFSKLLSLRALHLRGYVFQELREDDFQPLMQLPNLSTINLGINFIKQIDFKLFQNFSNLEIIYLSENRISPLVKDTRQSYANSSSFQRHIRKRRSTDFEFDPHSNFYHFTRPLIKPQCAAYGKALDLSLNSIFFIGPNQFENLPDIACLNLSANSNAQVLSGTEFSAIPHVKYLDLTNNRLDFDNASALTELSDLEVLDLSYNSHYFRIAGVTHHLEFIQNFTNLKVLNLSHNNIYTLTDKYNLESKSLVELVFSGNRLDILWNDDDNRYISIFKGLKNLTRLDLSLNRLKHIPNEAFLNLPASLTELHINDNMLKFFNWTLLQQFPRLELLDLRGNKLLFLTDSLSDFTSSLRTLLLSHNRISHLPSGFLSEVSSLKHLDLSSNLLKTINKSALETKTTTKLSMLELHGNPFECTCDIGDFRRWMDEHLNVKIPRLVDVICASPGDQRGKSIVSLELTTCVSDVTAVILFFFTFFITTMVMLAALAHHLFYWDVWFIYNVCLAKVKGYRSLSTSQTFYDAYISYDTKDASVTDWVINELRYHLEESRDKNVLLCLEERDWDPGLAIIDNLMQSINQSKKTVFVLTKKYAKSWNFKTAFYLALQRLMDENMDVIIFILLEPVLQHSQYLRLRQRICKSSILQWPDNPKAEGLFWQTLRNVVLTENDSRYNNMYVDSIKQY
Put plainly: TLR8 inhibition reporter assay (HEK-Blue cells, SEAP reporter, R848 stimulation). As to conditions: HEK-Blue cells overexpressing human TLR8, SEAP reporter, R848 15.9 μM. Put shortly:
as §1

A further assay has as its target T3, human TLR7 (Homo sapiens, UniProt Q9NYK1).
T3 construct: host or cells: HEK-Blue cells
T3 sequence (Q9NYK1 27-1049): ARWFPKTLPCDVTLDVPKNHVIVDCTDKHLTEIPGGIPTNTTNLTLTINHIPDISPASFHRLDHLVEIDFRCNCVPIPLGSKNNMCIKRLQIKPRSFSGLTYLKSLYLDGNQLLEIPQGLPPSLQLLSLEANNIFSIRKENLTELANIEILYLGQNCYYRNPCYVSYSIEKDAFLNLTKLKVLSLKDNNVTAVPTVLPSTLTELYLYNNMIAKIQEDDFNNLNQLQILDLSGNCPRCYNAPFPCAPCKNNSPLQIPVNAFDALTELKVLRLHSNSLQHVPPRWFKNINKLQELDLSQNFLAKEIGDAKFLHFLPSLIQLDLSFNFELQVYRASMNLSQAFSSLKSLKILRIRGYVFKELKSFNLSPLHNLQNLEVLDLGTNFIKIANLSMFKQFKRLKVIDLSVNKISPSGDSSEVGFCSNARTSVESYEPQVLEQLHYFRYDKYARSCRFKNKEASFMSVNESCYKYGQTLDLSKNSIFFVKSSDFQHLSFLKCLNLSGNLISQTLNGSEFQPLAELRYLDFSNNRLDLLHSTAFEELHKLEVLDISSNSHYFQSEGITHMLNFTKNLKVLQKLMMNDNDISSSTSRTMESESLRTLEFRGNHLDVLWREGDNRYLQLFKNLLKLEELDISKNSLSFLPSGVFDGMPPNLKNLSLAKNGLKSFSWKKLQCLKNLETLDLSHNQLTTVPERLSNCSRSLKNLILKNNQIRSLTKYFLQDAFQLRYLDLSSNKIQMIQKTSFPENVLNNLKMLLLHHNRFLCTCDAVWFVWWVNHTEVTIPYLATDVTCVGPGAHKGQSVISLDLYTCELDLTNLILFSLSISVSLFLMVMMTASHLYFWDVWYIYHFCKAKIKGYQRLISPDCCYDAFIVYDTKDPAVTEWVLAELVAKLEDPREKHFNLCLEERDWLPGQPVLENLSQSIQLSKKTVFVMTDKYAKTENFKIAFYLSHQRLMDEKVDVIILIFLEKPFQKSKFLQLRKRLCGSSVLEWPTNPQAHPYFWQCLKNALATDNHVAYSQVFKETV
The experiment in a line: TLR7 inhibition reporter assay (HEK-Blue cells, SEAP reporter, gardiquimod stimulation). To be noted: HEK-Blue cells overexpressing human TLR7, SEAP reporter, gardiquimod 7.5 μM. Put shortly: as §1

pIC50: −log10 of the molar value.

As a reminder, the pIC50 is the IC50 on a negative log10 scale, so that one unit is a factor of ten. A lower pIC50 goes with a high IC50. Consider `COc1cc(-c2[nH]c3ccc(C4CCC(N5CCC[C@H]5C(N)=O)CC4)cc3c2C(C)C)cn2ncnc12` (stereo partly drawn) [Example 31], for which the results for the pIC50 against human TLR9, against human TLR8 and at human TLR7 were 5.68, 8.21 and 9.00, respectively.

For the compound `COc1cc(-c2[nH]c3ccc(C4CCC(N5CCCC(F)(F)C5)CC4)cc3c2C(C)C)cn2ncnc12` (stereo not drawn) [Example 35], the figures for the negative-log IC50 (pIC50) on human TLR9, against human TLR8 and against human TLR7 were 4.75, 6.91 and 7.26, respectively.

Consider `COc1cc(-c2[nH]c3ccc(C4CCC(NC(=O)CN(C)C)CC4)cc3c2C(C)C)cn2ncnc12` (stereo not drawn) [Example 122], for which the pIC50 against human TLR9 was 5.06; at human TLR8, 8.62; against human TLR7 it was 9.62.

As for `Cc1c(-c2[nH]c3ccc(C4CC5CN(C6CCOCC6)CC5C4)cc3c2C(C)C)cn2cnnc2c1C` (stereo not drawn) [Example 563], the pIC50 against human TLR9 was 4.42; against human TLR8, 5.51; at human TLR7, 5.90.

For the compound `Cc1c(-c2[nH]c3ccc(C4CN(CC(N)=O)CCO4)cc3c2C(C)C)cn2ncnc2c1C` (stereo not drawn) [Example 319], the results for the pIC50 on human TLR9, at human TLR8 and at human TLR7 were below 4.30, 7.62 and 7.85, respectively.

Take `COc1cc(-c2[nH]c3ccc(C4CN(C5COC5)C(C)(C)CO4)cc3c2C(C)C)cn2ncnc12` (stereo not drawn) [Example 378]: the pIC50 at human TLR9 is below 4.30; at human TLR8 it was 6.75; at human TLR7, 7.30.

As for `COc1cc(-c2[nH]c3ccc(C4CCC(N)CC4)cc3c2C(C)C)cn2ncnc12` (single isomer, unassigned) [Example 1, 4-(3-isopropyl-2-(8-methoxy-[1,2,4]triazolo[1,5-a]pyridin-6-yl)-1H-indol-5-yl) cyclohexanamine], the negative logarithm of the IC50 (pIC50) on human TLR9 is 6.10; at human TLR8, 8.89; against human TLR7, 9.31.

`COc1cc(-c2[nH]c3ccc(C4CN(C)C(C)(C)CO4)cc3c2C(C)C)cn2ncnc12` (stereo not drawn) [Example 377]: the pIC50 against human TLR9 is 5.33; against human TLR8 it was 8.28; against human TLR7 it was 8.70.

On to `Cc1cc(-c2[nH]c3ccc(C4CN(CC(=O)N(C)C)CCO4)cc3c2C(C)C)cn2ncnc12` (single isomer, unassigned) [Example 316], for which the results for the negative-log IC50 (pIC50) at human TLR9, against human TLR8 and against human TLR7 were below 4.30, 7.26 and 8.05, respectively.

Consider `Cc1cc(-c2[nH]c3ccc(C4CN(C)CCO4)cc3c2C(C)C)cn2ncnc12` (stereo not drawn) [Example 296], for which the negative-log IC50 (pIC50) against human TLR9 is 5.08; at human TLR8, 8.20; at human TLR7, 8.52.

For the compound `Cc1cc(-c2[nH]c3ccc(C4CCC(NC(=O)CN(C)C)CC4)cc3c2C(C)C)cc(C)n1` (stereo not drawn) [Example 120], the negative logarithm of the IC50 (pIC50) at human TLR9 was 6.49; at human TLR8, 7.68; at human TLR7, 8.40.

For the compound `COc1cc(-c2[nH]c3ccc(C4CCCN(C(C)C)C4)cc3c2C(C)C)cn2ncnc12` (single isomer, unassigned) [Example 239], the negative logarithm of the IC50 (pIC50) is 5.86 against human TLR9, 8.52 against human TLR8 and 8.70 on human TLR7.

With `Cc1c(-c2[nH]c3ccc(C4CC(N(C)C(=O)CN(C)C)C4)cc3c2C(C)C)cn2ncnc2c1C` (stereo not drawn) [Example 589], the pIC50 against human TLR9 is 5.27; against human TLR8, 8.55; on human TLR7 it was 8.70.

Regarding `Cc1c(-c2[nH]c3ccc(C4CN(CCCC(F)(F)F)C4)cc3c2C(C)C)cn2cnnc2c1C` [Example 554], the pIC50 on human TLR9 is 5.28; on human TLR8 it was 7.82; at human TLR7, 7.74.

Take `COc1cc(-c2[nH]c3ccc(C4CCC(N5CCOCC5)CC4)cc3c2C(C)C)cn2ncnc12` (stereo not drawn) [Example 76]: the pIC50 was 5.65 against human TLR9, 8.24 at human TLR8 and 9.00 against human TLR7.

Take `COc1cc(-c2[nH]c3ccc(C4CCC(N(C)CCC(F)(F)F)CC4)cc3c2C(C)C)cn2ncnc12` (stereo not drawn) [Example 75]: the pIC50 against human TLR9 was 5.32; against human TLR8, 8.70; against human TLR7 it was 9.06.

As for `Cc1cc(-c2[nH]c3ccc(C4CCC(NC5COC5)CC4)cc3c2C(C)C)cc(C)n1` (stereo not drawn) [Example 61], the values for the negative logarithm of the IC50 (pIC50) against human TLR9, against human TLR8 and at human TLR7 were 6.70, 8.41 and 9.00, respectively.

In the case of `CC(C)c1c(-c2ccnc3[nH]ncc23)[nH]c2ccc(CC3CCNCC3)cc12` [Example 424], the pIC50 at human TLR9 is 5.68; at human TLR8 it was 8.54; against human TLR7, 7.62.

For the compound `COc1cc(-c2[nH]c3ccc(C4CCC(N5CC6(COC6)C5)CC4)cc3c2C(C)C)cn2ncnc12` (stereo not drawn) [Example 96], the figures for the pIC50 on human TLR9, against human TLR8 and against human TLR7 were 5.76, 8.48 and 8.70, respectively.

For `Cc1cc(-c2[nH]c3ccc(C4CCCN(C(=O)C5C(C)(C)C5(C)C)C4)cc3c2C(C)C)cc(C)n1` (stereo not drawn) [Example 200], the negative logarithm of the IC50 (pIC50) on human TLR9 is 4.58; on human TLR8 it was 6.61; at human TLR7, 7.40.

Turning to `COc1cc(-c2[nH]c3ccc(C4CNC(C)(C)CO4)cc3c2C(C)C)cn2ncnc12` (stereo not drawn) [Example 369], the pIC50 was 5.58 at human TLR9, 9.32 on human TLR8 and 9.30 against human TLR7.
